EC50 data for 99 compounds are collected here from PubChem BioAssay AID2253 (Southern Research Specialized Biocontainment Screening …, 2010).

pEC50: −log10 of the molar value.

As a reminder, the pEC50 is the EC50 on a negative log10 scale, so that one unit is a factor of ten.

The subject of the assay is THP-1 viability, CellTiter-Glo luminescence, 72 h. As to the kind of experiment: human monocytic cell viability reduction – S. typhimurium screen hits, cytotoxicity control for Salmonella PhoP regulon inhibitors, dose response (AID 2253).
In the case of `CN(C)c1ccc([C@@H]2[C@@H]([N+](=O)[O-])[C@H]3C=Cc4ccccc4N3[C@H]2C(=O)c2ccc(Cl)cc2)cc1`, the pEC50 was 4.69.
The same measure for `CCN1CCN(C(c2cccnc2)c2cc(Cl)c3cccnc3c2O)CC1` (centres undefined): 5.08; for `c1ccc2cc(CSCc3nc4ccccc4[nH]3)ccc2c1`: 4.37; for `Oc1ccccc1CN1CCCN(Cc2ccccc2O)C1`: 4.62.
With `N#Cc1c(NC(=O)c2cnccn2)sc2c1CCCC2`, the pEC50 was 5.03.
As for `CC(=O)n1cc(/C=N/NC(=O)c2sc(C)nc2C)c2ccccc21`, the figure is 4.94; as for `O=C1c2ccccc2-c2onc3ccc(NCc4ccco4)c1c23`, 4.75.
As for `Oc1c(CN2CCCCC2)cc(COCc2ccccc2)c2cccnc12`, the figure is 5.22; as for `OC(COc1ccc2ccccc2c1Br)Cn1ccnc1` (centres undefined), 4.36.
As for `O=C(N/N=C/c1ccc([N+](=O)[O-])s1)C(O)c1ccccc1` (centres undefined), the figure is 4.92.
Turning to `Cc1ccc(Cn2c(=N)n(CC(=O)c3ccc([N+](=O)[O-])cc3)c3ccccc32)cc1`, the pEC50 was 5.09.
Turning to `O=S(=O)(Nc1ccc(N=Nc2ccc(O)c3ccccc23)cc1)c1ccccc1`, the pEC50 is 4.66.
The same measure for `O=C(C[n+]1cc(-c2ccc(Cl)cc2)n2c1CCC2)Nc1nc(-c2ccc(F)cc2)cs1`: 4.57.
The same measure for `Cn1c(-c2ccc3c(c2)OCO3)cnc1NCc1cccc(Cl)c1`: 4.81.
The same measure for `O=C1c2[nH]nc(-c3ccccc3O)c2C(c2ccc(F)cc2)N1Cc1ccco1` (centres undefined): 4.70; for `ON=C1/C(=N\O)CC2(C/C1=N/O)OCCO2`: 4.46.
For the compound `Cc1ccc(/C=C2\SC(=S)N(Cc3ccccc3)C2=O)o1`, the pEC50 was 4.61.
As for `Cc1ccc(/C=C/C(=O)c2ccccc(=O)c2O)cc1C`, the figure is 4.76.
As for `c1ccc2c(C3=NNC(=NC4CC4)SC3)c[nH]c2c1`, the figure is 4.76.
Take `O=C(NC(=S)NNC(=O)c1ccccc1O)c1ccco1`: the negative-log EC50 (pEC50) was 4.84.
In the case of `COc1ccc(Nc2sc(C(=O)Nc3cccc(Cl)c3)c(N)c2C(=O)Nc2ccccc2OC)cc1`, the pEC50 is 4.59.
The same measure for `Cc1ccc2c(c1)[nH]c1c(N3CCN(Cc4ccccc4)CC3)ncnc12`: 4.72; for `COc1cccc(C(=O)Oc2c(CN3CCOCC3)cc(Cl)c3cccnc23)c1`: 5.15.
As for `Clc1ccc(Cn2ncc3c(NCc4ccco4)ncnc32)c(Cl)c1`, the figure is 5.17; as for `CCCCCCCCCCOC(=O)C[N+](C)(C)C/C=C(/C)Cl`, 5.07; as for `C=CCc1cccc(C2Nc3ccccc3C(=O)N2O)c1O` (centres undefined), 4.37.
Take `Cc1conc1NC(c1cccs1)c1ccc2cccnc2c1O` (centres undefined): the pEC50 is 5.26.
Turning to `O=C1C=C(N2CCOCC2)c2ccccc2C1=O`, the pEC50 is 5.16.
The same measure for `C=CS(=O)(=O)c1ccc(Oc2ccc(S(=O)(=O)C=C)cc2)cc1`: 5.85.
The same measure for `COc1cccc2[nH]c3c(N4CCN(Cc5ccc6c(c5)OCO6)CC4)ncnc3c12`: 4.32; for `Cc1ccc(Nc2nc(Cl)nc(N(C)C#N)n2)cc1`: 4.87; for `CCCC(=O)NC(c1ccccc1)c1ccc2cccnc2c1O` (centres undefined): 6.23.
For the compound `N#CC1=C(N)N=C(SCc2cccc3ccccc23)C(C(N)=O)C12CCCCC2` (centres undefined), the pEC50 is 4.68.
The same measure for `CN(CCO)c1cc(Sc2nc3ccccc3s2)c2nonc2c1[N+](=O)[O-]`: 4.80; for `CN1CCN(C(c2ccc(Cl)cc2)c2cc(Cl)c3cccnc3c2O)CC1` (centres undefined): 5.78; for `Cc1cccc(Nc2cc(C)c3c(O)cccc3n2)c1C`: 5.05.
The same measure for `CCOc1ccc(CSC(=N)N)cc1[N+](=O)[O-]`: 4.69.
The same measure for `Cc1cccc(C)c1NC(=O)CCCSc1nnc(-c2ccc(Cl)cc2)n1-c1ccccc1`: 4.56.
For the compound `c1ccc(Nc2nc3ccccc3[nH]2)nc1`, the pEC50 is 4.51.
The same measure for `NCC12CC3CC(C1)CC(c1ccc(Br)cc1)(C3)C2`: 5.08.
As for `O=c1[nH]c(CSc2ncc(-c3ccc(F)cc3)n2Cc2ccco2)nc2ccccc12`, the figure is 4.33; as for `O=Nc1ccc(O)c2ncccc12`, 5.75.
With `Cc1ccc(-c2cc(C(=O)Nc3nccs3)c3ccccc3n2)o1`, the pEC50 is 4.50.
The same measure for `O=C(c1ccc(CSc2nc3ccncc3[nH]2)cc1)N1CCN(c2cccc(Cl)c2)CC1`: 4.81; for `C[C@H]1c2cccc(O)c2C(O)=C2C(=O)[C@]3(O)C(O)=C(C(N)=O)C(=O)[C@@H](N(C)C)[C@@H]3[C@@H](O)[C@@H]21`: 4.56.
As for `CN(C)C=NC(=O)c1[nH]c2ccc(Cl)cc2c1-c1ccccc1`, the figure is 4.87.
Regarding `Cc1ccc(Nc2cc(C)nn2-c2nc(C)cc(=O)[nH]2)cc1`, the pEC50 is 6.21.
On to `Oc1ccc(NCc2ccccc2OCc2ccccc2F)cc1`, for which the pEC50 is 4.70.
The same measure for `O=CN/N=C/c1c(O)ccc2ccccc12`: 5.29.
As for `N=C(N)SCc1cn(-c2ccccc2)nc1-c1ccc(Br)cc1`, the figure is 5.32.
On to `O=[N+]([O-])c1ccc(NCCCNS(=O)(=O)c2ccccc2)c(Cl)c1`, for which the pEC50 is 4.37.
As for `COc1ccc(OCc2n(CC(=O)OC3CC(C)CCC3C(C)C)c3ccccc3[n+]2C)cc1` (centres undefined), the figure is 5.80; as for `O=C(CN1CCCc2ccccc21)N/N=C/c1c(O)ccc2ccccc12`, 5.51; as for `Oc1ccc(N=Cc2ccc(O)c(O)c2)cc1`, 5.12.
For the compound `CCN(CC)S(=O)(=O)c1cccc(C(=O)N/N=C/c2ccc(O)c(O)c2O)c1`, the pEC50 is 5.18.
As for `Oc1ccc(C=Nc2ccc3ncccc3c2)c(O)c1`, the figure is 4.85; as for `N=c1c2c(n(Cc3ccc(Br)cc3)c3c1CCC3)CCCC2`, 5.41.
As for `O=c1cc2oc3cc(O)c(O)cc3c(-c3ccccc3[N+](=O)[O-])c-2cc1O`, the figure is 4.98; as for `Cc1cc(C(=O)N/N=C/c2ccc([N+](=O)[O-])s2)n[nH]1`, 4.89; as for `CC(=O)NC(c1cccs1)c1cc([N+](=O)[O-])c2cccnc2c1O` (centres undefined), 5.00.
The same measure for `Oc1ccc(CN2CCCc3ccccc32)c2cccnc12`: 5.47; for `CCCCCCCSc1cc(OC)c(CCNC)cc1OC`: 5.20; for `COc1cc([N+](=O)[O-])cc(/C=N/NC(=O)c2cccnc2)c1O`: 4.49.
With `C/C(CC(=O)Nc1ccc(Cl)c(C(F)(F)F)c1)=N\NC(=O)c1cc2ccccc2cc1O`, the pEC50 is 5.09.
The same measure for `Cc1cccc(N2CCc3c2nc2ccccc2c3N)c1`: 4.32; for `Clc1ccc(CN2CCC(c3nc4ccc(Cl)cc4[nH]3)CC2)cc1`: 4.53.
Turning to `COc1ccc(C(=O)Cn2nc(CNc3ccc(Br)cc3)[n+]3c2CCCCC3)cc1`, the pEC50 is 5.11.
As for `C[C@H]1c2cccc(O)c2C(O)=C2C(=O)[C@]3(O)C(O)=C(C(N)=O)C(=O)[C@@H](N(C)C)C3[C@@H](O)C21` (some centres undefined), the figure is 4.51.
With `CCOC(=O)c1sc(NC(=O)Nc2ccc(Cl)cc2)cc1C`, the pEC50 was 4.99.
As for `O=C(NCCNc1ccc([N+](=O)[O-])cc1C(F)(F)F)c1cccc(F)c1`, the figure is 4.32; as for `CCc1ccc2[nH]c(=O)c(CN(Cc3ccccc3)C(=O)Nc3ccccc3OC)cc2c1`, 4.37; as for `Clc1ccc(Cl)c(OCCCCNCc2ccccc2)c1`, 4.56.
The same measure for `Cc1ccc(C(=O)Sc2cccccc2=O)cc1`: 5.58; for `NCCCC[C@H]1CN=C(N)N1CCC12CC3CC(CC(C3)C1)C2`: 4.48.
The same measure for `Cc1cc2cc(CCNC(=O)c3cccs3)c(=O)[nH]c2cc1C`: 4.76.
For `CN1CCN(C(c2ccc(C(F)(F)F)cc2)c2cc(Cl)c3cccnc3c2O)CC1` (centres undefined), the negative-log EC50 (pEC50) was 5.53.
The same measure for `COc1ccc(/C=N/Nc2cc(C)nc3ccccc23)cc1`: 5.12.
As for `C[C@H]1O[C@@H](n2cc(F)c(=O)[nH]c2=O)[C@H](O)[C@@H]1O`, the figure is 4.36; as for `C#CCOCCOCCOCCNc1nc(N2CCN(C(=O)CCCCCCCCCCNC(=O)[C@H](CO)n3cc(CCCCCN)nn3)CC2)nc(N2CCN(C(=O)CCCCCCCCCCNC(=O)[C@H](CCCN=C(N)N)n3cc(C[C@@H](C)CC)nn3)CC2)n1`, 5.05.
Regarding `COc1cccc(/C=N/NC(=O)c2ccc(-c3ccccc3)cc2)c1O`, the pEC50 is 5.97.
In the case of `O=c1[nH][nH]c(-c2ccccc2O)c1C(C[N+](=O)[O-])c1cccc(Cl)c1` (centres undefined), the pEC50 is 4.48.
As for `C#CCOc1ccc(/C=C2\SC(=S)N(Cc3cccnc3)C2=O)cc1`, the figure is 5.25; as for `N#CC1=C(N)Oc2c(O)cc3ccccc3c2C1c1ccsc1` (centres undefined), 4.67; as for `CCOc1cc(/C=C2/NC(=O)N(CC(=O)Nc3cccc(C)c3)C2=O)ccc1OC`, 4.51.
For the compound `S=C(Nc1ccccc1)Nc1nc2ccccc2n1CCOc1ccc(Cl)cc1`, the pEC50 is 4.82.
As for `Cc1[nH]n(-c2ncc(-c3ccc(Cl)cc3)s2)c(=O)c1C(c1ccc(Cl)cc1)C(C#N)C#N` (centres undefined), the figure is 4.35; as for `CCCCCCCCCCCCCCCC[N+](C)(C)C`, 6.10.
For the compound `O=[N+]([O-])c1cc(Cl)c2cccnc2c1O`, the pEC50 was 4.56.
For the compound `CCOC(=O)Cc1csc(NC(=O)NC2(C(F)(F)F)Oc3cc(Cl)c(Cl)cc3O2)n1`, the pEC50 was 4.58.
The same measure for `CN(C)S(=O)(=O)c1cccc(NC(=S)N/N=C/c2cc(Br)ccc2O)c1`: 6.19.
The same measure for `CC(=O)c1ccc(NC(=O)Nc2cccc(Cl)c2)cc1`: 4.70; for `O=C(NNc1nc(-c2ccccc2)cs1)c1ccccc1`: 4.58.
As for `CCCCCCCCCCOC(=O)Cn1c(COc2ccccc2)[n+](C)c2ccccc21`, the figure is 5.08; as for `CN(C)CCCNc1cc(C(C)(C)C)nc2c(-c3ccccc3)cnn12`, 5.03; as for `Cc1ccc(S(=O)(=O)/N=C2/C=C(Sc3ncn[nH]3)C(=O)c3ccccc32)c(C)c1`, 5.26.
In the case of `Cc1ccc(N=Nc2ccc(O)c(/C=N\NC(=O)c3ccc(N)cc3)c2)cc1C`, the negative logarithm of the EC50 (pEC50) is 5.48.
For the compound `Oc1[nH]c(=S)sc1/C=C1\C(c2ccccc2)=Nc2ccccc21`, the pEC50 was 4.59.
With `Oc1cccc2ccc[n+](CC(O)Cn3c4ccccc4c4ccccc43)c12` (centres undefined), the pEC50 was 4.95.
As for `CC(=O)NC(c1ccc(Cl)cc1Cl)c1ccc2cccnc2c1O` (centres undefined), the figure is 6.55.
